According to patent US11312727B1, “Macrocyclic flu endonuclease inhibitors” (Janssen BioPharma, Inc., priority 2018, dated 2022):

Legend:
[1] = system: Influenza strain A549 A/WSN/33 (H1N1); assay: microbe, parasite or virus in culture; assay type: cell-based; conditions: Influenza A virus, A549, 20 h, A549 cells, influenza A/WSN/33 (H1N1), 20 hours incubation; read-out: A549_A(H1N1) EC50
[2] = in vitro; conditions: human, CC50, uninfected A549 cells, CellTiter-Glo

Compound | EC50 [1] | CC50 [2]
CC(C)(C)[C@@H]1/C=C/COc2cccc3c2[C@H](c2ccccc2SC3)N2CN1C(=O)c1c(O)c(=O)ccn12 (single isomer, unassigned) [Compound 157B, (9*S,17a*R,*E)-9-(tert-butyl)-12-hydroxy-2,6,9,17a-tetrahydro-3,4-(epiprop[1]en[1]yl[3]ylidene)-10,17-methanobenzo[6,7]thiepino[4,5-c]pyrido[1,2-f][1]oxa[5,6,9]triazacyclotridecine-11,13-dione] | > 50 nM | > 100 nM
O=C1c2c(O)c(=O)ccn2N2CN1C1(/C=C/COc3c(ccc(Cl)c3Cl)[C@@H]2c2ccccc2)CC1 (single isomer, unassigned) [Compound 113B, (18′*S,*E)-3′,4′-dichloro-12′-hydroxy-18′-phenyl-6′H,18′H-spiro[cyclopropane-1,9′-[10,17]methanobenzo[b]pyrido[1,2-f][1]oxa[5,6,9]triazacyclotridecine]-11′,13′-dione] | 2 nM | > 200 nM
CC[C@H]1/C=C/COc2c(ccc(F)c2F)[C@@H](c2ccccn2)N2CN1C(=O)c1c(O)c(=O)ccn12 (single isomer, unassigned) [Compound 160AA, (9*S,18*S,*E)-9-ethyl-3,4-difluoro-12-hydroxy-18-(pyridin-2-yl)-6,9-dihydro-18H-10,17-methanobenzo[b]pyrido[1,2-f][1]oxa[5,6,9]triazacyclotridecine-11,13-dione] | 5.2 nM | > 100 nM
C[C@@H]1N2C/C=C/COc3c(F)cccc3[C@@H](c3ccccc3)N1n1ccc(=O)c(O)c1C2=O (single isomer, unassigned) [Compound 91A, (18*R,19*R,E)-4-fluoro-12-hydroxy-19-methyl-18-phenyl-6,9-dihydro-18H-10,17-methanobenzo[b]pyrido[1,2-f][1]oxa[5,6,9]triazacyclotridecine-11,13-dione] | 3 nM | > 1000 nM
CC[C@H]1/C=C/COc2c(Cl)cccc2[C@@H](c2ccccc2)N2CN1C(=O)c1c(O)c(=O)ccn12 (single isomer, unassigned) [Compound 98BA, (9*S,18*R,E)-4-chloro-9-ethyl-12-hydroxy-18-phenyl-6,9-dihydro-18H-10,17-methanobenzo[b]pyrido[1,2-f][1]oxa[5,6,9]triazacyclotridecine-11,13-dione] | 830 nM | 26400 nM
O=C1c2c(O)c(=O)ccn2N2CN1C/C=C\COc1c(ccc(F)c1F)[C@H]2c1ccccc1C1CC1 (single isomer, unassigned) [Compound 136A, (18*R,*Z)-18-(2-cyclopropylphenyl)-3,4-difluoro-12-hydroxy-6,9-dihydro-18H-10,17-methanobenzo[b]pyrido[1,2-f][1]oxa[5,6,9]triazacyclotridecine-11,13-dione] | 6.3 nM | > 200 nM
C[C@@H]1/C=C/COc2c(ccc(F)c2F)[C@@H](c2ccccc2)N2CN1C(=O)c1c(O)c(=O)ccn12 (single isomer, unassigned) [Compound 148AA, (9*R,18*R,*E)-3,4-difluoro-12-hydroxy-9-methyl-18-phenyl-6,9-dihydro-18H-10,17-methanobenzo[b]pyrido[1,2-f][1]oxa[5,6,9]triazacyclotridecine-11,13-dione] | 1.6 nM | > 50 nM
O=C1c2c(O)c(=O)ccn2N2CN1C1(/C=C/COc3ccccc3[C@H]2c2ccccc2)CCC1 (single isomer, unassigned) [Compound 106A, (18′*R,E)-12′-hydroxy-18′-phenyl-6′H,18′H-spiro[cyclobutane-1,9′-[10,17]methanobenzo[b]pyrido[1,2-f][1]oxa[5,6,9]triazacyclotridecine]-11′,13′-dione] | 3.5 nM | > 200 nM
C[C@@H]1/C=C\COc2cc(F)c(F)c3c2[C@H](c2ccccc2SC3)N2CN1C(=O)c1c(O)c(=O)ccn12 (single isomer, unassigned) [Compound 162C, (13*R,21a*R,*Z)-24,25-difluoro-16-hydroxy-13-methyl-6,10,13,21a-tetrahydro-7,8-(epiprop[1]en[1]yl[3]ylidene)-14,21-methanobenzo[6,7]thiepino[4,5-c]pyrido[1,2-f][1]oxa[5,6,9]triazacyclotridecine-15,17-dione] | 10 nM | > 100 nM
CC[C@@H]1/C=C/COc2ccccc2[C@@H](c2ccccc2)N2CN1C(=O)c1c(O)c(=O)ccn12 [Compound 39BA, (9R,18R,E)-9-ethyl-12-hydroxy-18-phenyl-6,9-dihydro-18H-10,17-methanobenzo[b]pyrido[1,2-f][1]oxa[5,6,9]triazacyclotridecine-11,13-dione] | 6 nM | > 200 nM
O=C1c2c(O)c(=O)ccn2N2CN1C/C=C\COc1ccccc1[C@@H]2c1ccc(F)c(F)c1 (single isomer, unassigned) [Compound 45B, (18*S,Z)-18-(3,4-difluorophenyl)-12-hydroxy-6,9-dihydro-18H-10,17-methanobenzo[b]pyrido[1,2-f][1]oxa[5,6,9]triazacyclotridecine-11,13-dione] | 14 nM | > 200 nM
COC[C@@H]1/C=C/COc2c(ccc(F)c2F)[C@H](c2ccccc2)N2CN1C(=O)c1c(O)c(=O)ccn12 (single isomer, unassigned) [Compound 153AA, (9*S,18*S,*E)-3,4-difluoro-12-hydroxy-9-(methoxymethyl)-18-phenyl-6,9-dihydro-18H-10,17-methanobenzo[b]pyrido[1,2-f][1]oxa[5,6,9]triazacyclotridecine-11,13-dione] | > 50 nM | > 100 nM
O=C1c2c(O)c(=O)ccn2N2CN1C/C=C\CCc1ccccc1[C@@H]2c1ccccc1 (single isomer, unassigned) [Compound 21B, (17*S,*Z)-4-hydroxy-16-phenyl-7,10,11,16-tetrahydro-6,17-methanobenzo[k]pyrido[1,2-b][1,2,5]triazacyclotridecine-3,5-dione] | 815 nM | > 1000 nM
C/C1=C/CN2CN([C@H](c3ccccc3)c3ccccc3OC1)n1ccc(=O)c(O)c1C2=O (single isomer, unassigned) [Compound 44A, (18*R,*Z)-12-hydroxy-7-methyl-18-phenyl-6,9-dihydro-18H-10,17-methanobenzo[b]pyrido[1,2-f][1]oxa[5,6,9]triazacyclotridecine-11,13-dione] | > 100 nM | > 200 nM
C[C@@H]1/C=C/COc2c(F)cccc2[C@@H](c2ccccc2)N2CN1C(=O)c1c(O)c(=O)ccn12 (single isomer, unassigned) [Compound 141AA, (9*R,18*R,E)-4-fluoro-12-hydroxy-9-methyl-18-phenyl-6,9-dihydro-18H-10,17-methanobenzo[b]pyrido[1,2-f][1]oxa[5,6,9]triazacyclotridecine-11,13-dione] | 1.5 nM | > 50 nM
O=C1c2c(O)c(=O)ccn2N2CN1CCCCOc1ccccc1[C@@H]2c1ccccc1 [Compound 8B, (18S)-12-hydroxy-18-phenyl-6,7,8,9-tetrahydro-18H-10,17-methanobenzo[b]pyrido[1,2-f][1]oxa[5,6,9]triazacyclotridecine-11,13-dione] | 4130 nM | > 2000 nM
